This note sets out measurements from US4728734A, “C-3'thioiminosulfonyl cephalosporin analogs” (American Home Products Corporation, priority 1985, dated 1988).

SMILES strings stand for the structures. Converted amounts (≈) assume the structure as drawn. Where a name gives a salt, the structure may show the parent alone.

Common to all, as to type: cell-based
For assay [1], the system named is Serratia marcescens ATCC 13880. The experiment in a line: Antibacterial activity, agar dilution MIC, Serratia marcescens ATCC 13880. Particulars: ATCC13880, 18 hours at 35° C. How it is done:
(§1) The compounds of the invention are tested for their antibacterial activity. The test is carried out as follows:
(§2) The organisms used in the test comprise the following:
(§3) Staphylococcus aureus (penicillin-sensitive and resistant), Pseudomonas aeruginosa, Escherichia coli, […] pneumoniae, Bordetella bronchiseptica, Proteus vulgaris, P. mirabilis, Acinetobacter calcoaceticus.
(§4) Test organisms may be added or deleted in order to reflect current clinical patterns of antibiotic susceptibility or shifts in pathogenic potential.
(§5) Organisms are normally grown for 18 hours in Brain Heart Infusion at 35° C. Cultures are adjusted with saline to MacFarland No. 1.5 standard prior to use.
(§6) Stock concentrations (e.g. 2,5000 μg or units per ml) are prepared in a suitable vehicle. Two-fold dilutions are made. One ml quantities of each dilution are incorporated in 9 ml of the appropriate agar (e.g. Seed) in sterile Petri plates. The hardened surface is inoculated with test organisms by use of a Steers replicating device. The plates are incubated (e.g. 18 hours at 35° C.) and activity is determined.

Assay [2] deals with Escherichia coli ATCC 25922. The experiment in a line: Antibacterial activity, agar dilution MIC, Escherichia coli ATCC 25922. Conditions: ATCC25922, 18 hours at 35° C. Here is the method:
as §1, §2, §3, §4, §5, §6

Assay [3] concerns Staphylococcus aureus ATCC 29213. As to the kind of experiment: Antibacterial activity, agar dilution MIC, Staphylococcus aureus ATCC 29213. Conditions: ATCC29213, 18 hours at 35° C. How it is done: as §1, §2, §3, §4, §5, §6
For assay [4], the system named is Enterobacter cloacae ATCC 13047. As to the kind of experiment: Antibacterial activity, agar dilution MIC, Enterobacter cloacae ATCC 13047. Conditions: ATCC13047, 18 hours at 35° C. Here is the method: as §1, §2, §3, §4, §5, §6
Assay [5] has as its system Proteus vulgaris A 84354 1. As to the kind of experiment: Antibacterial activity, agar dilution MIC, Proteus vulgaris A 84354 1. Conditions: A843541, 18 hours at 35° C. How it is done: as §1, §2, §3, §4, §5, §6
Assay [6] relates to Streptococcus faecalis ATCC 29212. The experiment in a line: Antibacterial activity, agar dilution MIC, Streptococcus faecalis ATCC 29212. Conditions: Enterococcus faecalis, ATCC29212, 18 hours at 35° C. Here is the method:
as §1, §2, §3, §4, §5, §6

The test system of assay [7] is Klebsiella pneunomiae KL-1. The experiment in a line: Antibacterial activity, agar dilution MIC, Klebsiella pneunomiae KL-1. Particulars: KL1, 18 hours at 35° C. Here is the method:
as §1, §2, §3, §4, §5, §6

The test system of assay [8] is Pseudomonas aeruginosa ATCC 27853. The experiment in a line: Antibacterial activity, agar dilution MIC, Pseudomonas aeruginosa ATCC 27853. Conditions: ATCC27853, 18 hours at 35° C. Here is the method:
as §1, §2, §3, §4, §5, §6

`CO/N=C(\C(=O)N[C@@H]1C(=O)N2C(C(=O)OC(C)(C)C)=C(CSC3=NS(=O)(=O)c4cscc43)CS[C@H]12)c1csc(N)n1` [Example 1 B., (6R,7R)-7[[(2-Amino-4-thiazolyl)(methoxyimino)acetyl]amino]-8-oxo-3-[(thieno[3,4-d]isothiazol-3-ylthio)methyl]-5-thia-1-azabicyclo[4.2.0]oct-2-ene-2-carboxylic acid 1,1-dimethylethyl ester S^3,S^3-dioxide]: the MIC in assay [1] is 32 µg/mL (≈ 48.7 µM); in assay [2] it was 8 µg/mL (≈ 12.2 µM); in assay [3], 128 µg/mL (≈ 195 µM); in assay [4] it was over 256 µg/mL; in assay [5], 2 µg/mL (≈ 3.04 µM); in assay [6] it was over 256 µg/mL. For the same compound, the MIC was 2 µg/mL (≈ 3.04 µM) in assay [7] and over 256 µg/mL in assay [8].

Consider `CO/N=C(\C(=O)N[C@@H]1C(=O)N2C(C(=O)O)=C(CSC3=NS(=O)(=O)c4cscc43)CS[C@H]12)c1csc(N)n1` [Example 1 C., (6R,7R)-7-[[(2-Amino-4-thiazolyl)(methoxyimino)acetyl]amino]-8-oxo-3-[(thieno-[3,4-d]isothiazol-3-ylthio)methyl]-5-thia-1-azabicyclo[4.2.0]oct-2-ene-2-carboxylic acid S^3,S^3-dioxide, trifluoroacetate salt], for which the MIC was 2 µg/mL in assay [1]; 2 µg/mL in assay [2]; 32 µg/mL in assay [3]; 32 µg/mL in assay [4]; under 1 µg/mL in assay [5]; 256 µg/mL in assay [6]. For the same compound, the figures for the MIC in assay [7] and in assay [8] were under 1 µg/mL and over 256 µg/mL, respectively.
